The NOAEL is the highest tested level that showed no adverse finding.

Consider four compounds from patent publication US12048734B2, “Bioactive peptides and methods of use thereof” (OP-T LLC, priority 2020, dated 2024).

Data set [1] in a line: Character of infusion reactions in the animal studies. Type of data set: in vivo. The source says:
There was clear difference between the infusion reactions seen in the rats and dogs, and IgE-mediated anaphylaxis or other antigen-dependent hypersensitivity. IgE/antigen-dependent degranulation of mast cells is associated with a sustained release of larger and more heterogeneously shaped granule structures, whereas peptide-activated mast cells rapidly secrete small and relatively spherical granule structures (Gaudenzio 2016). […] In addition, the infusion reactions were also elicited by a scrambled version of OPT101 (same amino acids but in a different sequence), showing the reaction was not OPT101-dependent.

The conditions of data set [2]: NDA 022150; cited from earlier work.
For data set [3], the system named is Th40 cells. As to the kind of experiment: Intracellular TGF in Th40 cells from ApoE−/− mice treated with KGYY6. To be noted: ApoE−/− mice with cardiovascular disease treated with KGYY6 vs not treated; ex-vivo flow cytometry. The procedure: Th40 cells were purified from ApoE−/−mice with cardiovascular disease as well as from ApoE−/−mice that were treated with KGYY6. Immediately ex-vivo, the cells were stained for CD3, CD4, and CD40 and intracellular TGF and analyzed by flow cytometry. Cells were gated on CD3 then CD4 and CD40 for Th40 cells then levels of TGF were assessed.
A general note: Flow cytometry measures light scatter and fluorescence of single cells or particles in a stream.

Data set [4] in a line: Glucose tolerance and insulin sensitivity after KGYY6. Format: in vivo, ApoE −/−mice.
Data set [5] relates to CD3+CD4+CD40+(Th40) splenic cells. As to the kind of experiment: Overnight culture of Th40 splenic cells with KGYY6, inflammatory cytokines. Format: cell-based, ApoE−/− mice. To be noted: cultured overnight with varying concentrations of KGYY6; vs untreated cells. The procedure: CD3+CD4+CD40+(Th40) splenic cells were purified from ApoE−/− with cardiovascular disease. The cells were cultured overnight in the absence/presence of varying concentrations of KGYY6 peptide.

The subject of data set [6] is conventional CD4 T cells. As to the kind of experiment: Intracellular IL-10 in conventional CD4 T cells ex-vivo at end of EAE experiment after KGYY6 treatment. Also on record: species or system mice. To be noted: draining lymph nodes (dLN); after 33 days; vs untreated animals; p=0.0145. The source says: FIG. 10 provides two graphs which show how KGYY-6 treatment alters IL-10 production by conventional CD4 T cells.
Intracellular cytokine expression profiles were examined in conventional CD4 T cells immediately ex-vivo at the end of the EAE experiment, after 33 days.

The nature of data set [7]: Single dose dog study focused on cardiovascular effects, 30-minute IV infusion. Format: in vivo, dogs. The procedure: Since some of the clinical signs were consistent with a drop in blood pressure, a single dose dog study was done, giving doses of 0.3, 1 or 100 mg/kg by a 30-minute IV infusion, and focused on cardiovascular effects. […] The 100 mg/kg group had much more severe clinical observations compared to 1 mg/kg. These effects were associated with decreases in blood pressure and heart rate for the dogs treated with 100 mg/kg. The blood pressure and heart rate returned to normal by 1 hour after end of infusion.

For data set [8], the system named is human platelets. Kind of data set: Human platelet aggregation in vitro by light transmission aggregometry. Type of data set: cell-based. The source says:
It has been shown that using an anti-CD154 monoclonal therapeutic approach to interfere with the CD40-CD154 interaction there was efficacy in animal models, but in the clinical trial of one of the monoclonal antibodies there was binding to platelets resulting in emboli. Therefore, the clinical trials were halted (Kawai et al 2000, abstract). To determine if OPT101 has similar effects as the monoclonal antibody, an in vitro study was done with human platelets to determine if OPT101 would affect platelet aggregation, as measured by light transmission aggregometry. Platelet aggregation induced with adenosine diphosphate or collagen were not affected when treated with OPT101 at 0.1, 0.3, 3 or 30 μg/mL. […] Therefore, OPT101 had no impact on human platelet aggregation in vitro.

Data set [9] can be described thus: Preliminary toxicity study, single IV bolus, beagle dogs. Type of data set: in vivo. The procedure:
(§1) In a preliminary toxicity study rats and dogs were given a single dose of OPT 101 as an IV bolus. […] When OPT101 was administered to beagle dogs at 50 or 100 mg/kg by bolus IV injection OPT101 was not tolerated due to adverse clinical signs, including prostration, slight salivation, decreased activities, purple or red skin colored in the abdomen ventral, lateral ears or conjunctiva(s), lips, or periorbital, soft stool, medium food-like, red/brown, or small and frothy vomitus, increased respiratory rate, and labored breathing. Clinical pathology effects included increases in leukocyte count, erythrocyte and platelet counts.

Data set [10] is described as follows: Preliminary toxicity study, single IV bolus, rats. Type of data set: in vivo. To be noted: 50 or 100 mg/kg bolus IV injection. The procedure: as §1
Data set [11] is described as follows: 8-week GLP repeat-dose toxicity study, 30-minute IV infusion, dogs. Format: in vivo. The procedure:
Rats and dogs were treated once a week for 8-weeks, by 30-minute IV infusions. The PK of OPT101 was also determined following the first and last dose in each study.

For data set [12], the system named is bacterial mutation. As to the kind of experiment: Standard reverse bacterial mutation assay (Ames assay). From the text:
OPT101 was negative in the standard reverse bacterial mutation assay (Ames assay).
In general terms: The Ames test detects mutagens through reverse mutation in bacteria.

Data set [13] in a line: Single bolus IV dose histamine / immune mediator study in rats.
The nature of data set [14]: 8-week GLP repeat-dose toxicity study, 30-minute IV infusion, rats. Type of data set: in vivo. The method, then:
Due to these adverse effects in the rats and dogs after a bolus IV injection, the administration of OPT101 was changed to IV infusion over 30 minutes for the definitive GLP toxicity studies. Rats and dogs were treated once a week for 8-weeks, by 30-minute IV infusions. The PK of OPT101 was also determined following the first and last dose in each study. […] The no observable adverse effect level (NOAEL) for OPT101 was considered to be the […] level. […] Due to the incidence and severity of the infusion reactions, the clinical signs were considered adverse at 100 and 400 mg/kg, but because of the lower incidence and severity at 10 mg/kg, the effects at the 10 mg/kg were considered non-adverse.

Setting [15] is: 50 and 100 mg/kg IV injection, vs pretest values.
Where [16] appears, read: 12.5 mg/kg bolus IV, 1-hour post-treatment.

As to “YKNVKQMAYWLTGKS [scrambled version of OPT101, reference compound]”, the infusion reactions entry in [1] is “also elicited”.

As to `NC(N)=NCCC[C@@H](N)C(=O)N[C@@H](CCCN=C(N)N)C(=O)N1CCC[C@H]1C(=O)N1C[C@H](O)C[C@H]1C(=O)NCC(=O)N[C@@H](Cc1cccs1)C(=O)N[C@@H](CO)C(=O)N1Cc2ccccc2C[C@@H]1C(=O)N1[C@H](C(=O)N[C@@H](CCCN=C(N)N)C(=O)O)C[C@@H]2CCCC[C@@H]21` [icatibant], the infusion reaction result in data set [2] is listed as “causes a reaction due to histamine release that is quickly reversed after end of infusion”.

With AKKGYY [KGYY6], the “production of TGF (intracellular, Th40 cells)” value in data set [3] was “decrease production of TGF”. The insulin sensitivity entry in data set [4] (p<0.005) was “statistically significant improvement”. Also, in data set [4] (p<0.05), the glucose tolerance result is listed as “statistically significant improvement”. Besides, in [5], the “inflammatory cytokine IFNγ” value was “varying degrees of reduction”, the “inflammatory cytokine IL-2” value was “varying degrees of reduction” and the “inflammatory cytokine IL-17A” value is “varying degrees of reduction”. The “intracellular IL-10 in conventional CD4 T cells” value in data set [6] is given as “increase in intracellular IL-10”.

Consider `CSCC[C@H](NC(=O)[C@@H](NC(=O)[C@H](Cc1ccc(O)cc1)NC(=O)[C@H](Cc1ccc(O)cc1)NC(=O)CNC(=O)[C@H](CCCCN)NC(=O)[C@H](CCCCN)NC(=O)[C@H](C)NC(=O)[C@H](Cc1c[nH]c2ccccc12)NC(=O)[C@H](CCC(N)=O)NC(=O)[C@H](CC(C)C)NC(=O)[C@@H](N)C(C)C)[C@@H](C)O)C(=O)N[C@@H](CCCCN)C(=O)N[C@@H](CO)C(=O)N[C@@H](CC(N)=O)C(=O)O` [OPT101, VLQWAKKGYYTMKSN], for which the complement activation entry in [1] was “no evidence of complement activation”. Moreover, the “duration of clinical signs and release of histamine” value in [1] is given as “very transient”. In [7] (0.3 mg/kg), the “clinical observations or physiological changes” value is “no clinical observations or physiological changes”. In data set [7] (100 mg/kg), the “blood pressure and heart rate” value was “decreases”. For the same compound, the “time for blood pressure and heart rate to return to normal after end of infusion” value in [7] (100 mg/kg) was at most 1 h. For the same compound, the “serum levels of histamine” value in data set [7] (100 mg/kg, 5 and 30 minutes after start of infusion) is on record as “significantly elevated”. Besides, the “body weight, food consumption, body temperature, respiratory rate and coagulation” value in data set [7] (0.3, 1 or 100 mg/kg, 30-minute IV infusion, single dose) was “no OPT101-related body weight, food consumption, body temperature, respiratory rate and coagulation changes”. Further, the “histamine related clinical observations” value in data set [7] (1 and 100 mg/kg, much more severe at 100 mg/kg) was “salivation, vomitus, incontinence, discolored skin, swelling and rash”. Also, the “no observable effect level (NOEL)” value in [7] (single dose, 30-minute IV infusion) stood at 0.3 mg/kg. Further, in data set [8] (OPT101 at 30 μg/mL), the spontaneous platelet aggregation result is reported as “no spontaneous platelet aggregation”. Besides, the “Platelet aggregation induced with adenosine diphosphate or collagen” value in data set [8] (OPT101 at 0.1, 0.3, 3 or 30 μg/mL) was “not affected”. The “assessment of clinical chemistry effects” value in data set [9] (100 mg/kg) is recorded as “adverse”. In addition, the “alanine aminotransferase, aspartate aminotransferase, alkaline phosphatase, γ-glutamyltransferase, urea, creatinine, calcium, phosphorus, total bilirubin, creatine kinase” value in data set [9] (setting [15]) was “notable increases”. The potassium entry in data set [9] (setting [15]) is reported as “decrease”. Besides, the “serum C5b-9 complement levels” value in data set [9] (50 or 100 mg/kg) is “no increases”. The “decrease of fibrinogen (down to)” value in [9] (50 or 100 mg/kg bolus IV) came out at 32%. Further, the “increase of prothrombin time” value in data set [9] (50 or 100 mg/kg bolus IV) was determined as 288%. The “leukocyte count, erythrocyte and platelet counts” value in data set [9] (50 or 100 mg/kg bolus IV) is reported as “increases”. Besides, the tolerability entry was “not tolerated” in data set [9] (50 or 100 mg/kg bolus IV injection, single dose); “did not tolerate the treatment” in data set [10] (single dose); “well tolerated” in data set [11] (10, 100, or 400 mg/kg/dose once a week for 8 weeks, 30-minute IV infusion); “well tolerated and did not result in any adverse effects” in data set [14] (10, 100 or 200 mg/kg/dose once a week for 8 weeks, 30-minute IV infusion). Further, the “histopathology evaluation of liver and kidney” value in [9] (bolus IV) is “no liver or kidney lesions”. Besides, the mortality result in data set [10] is listed as “mortality of two rats”. For the same compound, the “assessment of infusion reaction clinical signs” value in data set [11] (10 mg/kg) is on record as “non-adverse”; in data set [11] (100 and 400 mg/kg), “adverse”. Moreover, in data set [11] (8-week study, PK after first and last dose), the “plasma drug levels versus dose” value is “increased with increasing dose”. In addition, in data set [11] (10, 100, or 400 mg/kg/dose), the “infusion reactions, incidence” value was “in all treated animals”. Also, the NOAEL in data set [11] (dog, in vivo, dogs, infusion reaction, once weekly for 8 weeks, 30-minute IV infusion, read-out: no observable adverse effect level (NOAEL)) was 10 mg/kg; in data set [14] (rat, in vivo, rats, once weekly for 8 weeks, 30-minute IV infusion, read-out: no observable adverse effect level (NOAEL)), 200 mg/kg. The thromboemboli result in data set [11] (dogs, 8-week toxicology study) was “no evidence of thromboemboli”; in [14] (rats, 8-week toxicology study), “no evidence of thromboemboli”. Further, the “toxicity other than infusion reaction” value in [11] (dogs, up to highest dose of 400 mg/kg, once weekly for 8 weeks, 400 mg/kg) is given as “no other adverse effects”; in data set [14] (rats, up to highest dose of 200 mg/kg, once weekly for 8 weeks, 200 mg/kg), “no other adverse effects”. Moreover, the drug accumulation entry in [11] (over the 8-week study) is “no marked drug accumulation”. Also, the “reverse bacterial mutation (Ames assay)” value in data set [12] is given as “negative”. For the same compound, the “serum C3 levels (as measured by conversion to human SC5b-9)” value in [13] (setting [16]) is “no decreases”. The “serum IFN-γ, TNF-α, IL-10, IL-4, IL-5, IL-6, IL-10, or IL-13 levels” value in data set [13] (setting [16]) is “no changes”. For the same compound, in [13] (12.5 mg/kg bolus IV, 10-minutes post-treatment), the serum histamine levels result is given as “increased significantly”. For the same compound, the clinical observation entry in data set [13] (single bolus IV dose 12.5 mg/kg) was “consistent with a histamine reaction”.
